Data set [1] relates to synovial fibroblasts / human cartilage. As to the kind of experiment: In vitro cartilage degradation by synovial fibroblasts from a RA patient, release of sGAG. Format: cell-based. The method, then: (§1) The effect of RXR antagonists on the activity of synovial fibroblasts, dependent on their state of activation, i.e. modified by a concomitant stimulation by the inflammatory cytokine Interleukin-1β (IL-1β), is determined. Furthermore, it is determined whether this is accompanied by a modulation in the accumulation of the mRNA encoding catabolic enzyme matrix metalloproteinase-1 (MMP-1), responsible for degradation of human cartilage and consequently joint destruction in man. Adherent synovial fluid cells taken from a patient with RA are used after 5 passages in an in vitro assay for cartilage destruction. The cells incubated in flasks coated with 0.1% (0.1 g/100 ml) human cartilage powder are fixed using Matrigel® (BD Biosciences, Becton, Dickinson & Co., Boston, Miss., USA). The release of sulphated glycosaminoglycan (sGAG) into the culture medium is monitored by a commercial calorimetric test according to a method described by S. Björnsson, see Anal. Biochem. 256, 229-237 (1998) using an alcian blue dot plot analysis, and the accumulation of mRNA encoding MMP-1 is quantified by real time PCR (TaqMan® (Roche Diagnostics, Basle, Switzerland)).
The retinoid agonists all-trans retinoic acid and 9-cis retinoic acid, both physiological metabolites of vitamin A, as well as the RXR antagonist compound A, diluted first in ethanol, and then diluted with vehicle or medium to the desired dose/concentration are tested in a time course (0-35 days for the in vitro assay, 0-48 hours for MMP-1 mRNA, see tables 7, 8 and 10) and dose-dependent (10^−7 to 10^−9 M, see tables 5, 6 and 9). This is conducted in the presence or absence of IL-1β (100 pg/ml).

Data set [2] has as its system human skin. As to the kind of experiment: Clinical pilot trial: inflammation potential on healthy, non-inflamed human skin (epicutaneous). Format: in vivo. The text has this:
In a clinical pilot trial on one healthy volunteer compound A is applied epicutaneously in a concentration of 1% for its inflammation potential compared to that of the strong inflammation inducing agent 9-cis RA in concentrations of 0.1%, 0.3% and 1%.
The compounds are solved or suspended in ethanol/propylene glycol (1:1). They are applied epicutaneously twice daily, 7 days a week, for two consecutive weeks. The site of application is an area of 3×3=9 cm^2 on the abdominal skin. The volume is 0.1 ml per application.
The following signs and symptoms of skin inflammation are recorded: Erythema, desquamation (scaling), pruritus, burning, pain, exsudation, edema, ulceration. They are classified on a scale of:
Treatment period lasts from day 1 to 14, the post-treatment observation period from day 15 to day 28

The subject of the next data set is MMP-1 mRNA. As to the kind of experiment: MMP-1 mRNA accumulation in synovial fibroblasts (real time PCR). The class given is cell-based, human. The method, then:
as §1, with “Switzerland)). […] This is conducted in the presence or absence of IL-1β (100 pg/ml).” for “Switzerland)).”
For orientation: In qPCR the cycle at which signal appears reflects the starting amount.

In data set [3] the test system is human skin. As to the kind of experiment: Clinical phase I trial: skin inflammation induced by Candidin or UV-B irradiation in healthy volunteers. Format: in vivo. The conditions noted are these: Candidin intradermal or UV-B induced, topical treatment days 1-3, 4 volunteers; compound A 1% lotion, comparators as creams. The method, then:
Four healthy volunteers participate. Inclusion criteria are: Age above 18 years, male or female. They are informed, with written letter of consent. Exclusion criteria are: Preexistant dermatological diseases, known allergy to test agents.
Inflammation inducing agents: Candidin is administered intradermally (see also D. Poffet, Comparaison entre le pouvoir vaso-constricteur d'un corticoide topique et l'inhibition de la dermite à la candidine après intradermoréaction (IDR). Thèse, Université de Genève, 1984). UV-B rays are administered by a UV-B lamp.
Inflammation is measured quantitatively. The area of the inflamed skin is measured in cm^2. The thickness of the skin is monitored by Ultrasound at 20 MHz. Erythema is measured by calorimetric determination employing a Minolta CR 20. […]
All determinations are recorded on a scale from 0 to 4: • 0=no reduction • 1=slight reduction (10 to 20%) • 2=moderate reduction (21 to 40%) • 3=marked reduction (41 to 70%) • 4=very marked reduction (71 to 100%) • Compared to vehicle control.

Data set [4] deals with human skin. Put plainly: Clinical pilot trial: preventive and therapeutic effect on 9-cis RA induced human skin inflammation. Format: in vivo. The conditions noted are these: Therapy: 9-cis RA 0.3% day 1 to day 14, compound A 1% from day 15. How it is done: In this pilot clinical trial on one healthy volunteer, the substance 9-cis RA and compound A are administered epicutaneously. The inflammation-inducing agent 9-cis RA is used in a concentration of 0.3%. The RXR antagonist compound A is applied in a concentration of 1%. The compounds are solved in ethanol/propylene glycol (1:1) and administered twice daily. The site of application is the abdominal skin, with various areas of 3×3=9 cm^2. Volume per application is 0.1 ml.
The following three clinical settings at different sites are chosen:
1. Induction of Skin Inflammation by 9-cis RA • 9-cis RA is administered as a 0.3% solution twice daily from day 1 to day 14. The vehicle is administered from day 15 to disappearances of skin inflammation.
2. Prevention of 9-cis RA-Induced Skin Inflammation by RXR Antagonist Compound A • 9-cis RA solution of 0.3% is administered twice daily from day 1 to day 14, each time followed subsequently by application of compound A as a 1% solution.
3. Therapy of 9-Cis RA-Induced Skin Inflammation by RXR Antagonist Compound A • 9-cis RA solution of 0.3% is administered twice daily from day 1 to day 14. Compound A as a 1% solution is administered from day 15 until disappearance of skin inflammation.
The signs and symptoms of skin inflammation are recorded on a 0-4 scale, as described in example 16. […]

In another data set the test system is normal skin of mice. Put plainly: Effect on normal, non-inflamed skin of mice. The class given is in vivo, mice (C57BL/6). The note with it: mouse ears. How it is done:
The effect of the RXR antagonist compound A on normal skin of mice is investigated. The ears of C57BL/6 mice are treated epicutaneously (topically) for 4 consecutive days with compound A in a concentration of 0.05% and 2.5% in acetone/ethanol (1:1, v/v). Comparison with vehicle control. Daily observation of skin reactions, in particular inflammation, erythema, desquamation, and edema follows. Myeloperoxidase (MPO) activity is determined. The activity of MPO is considered the most sensitive criterium for the assessment of inflammation of the skin (see above, Examples 1 and 2).

As for `CC1=C(/C=C/C(C)=C\C=C\C(C)=C\C(=O)O)C(C)(C)CCC1` [9-cis RA, 9-cis retinoic acid], the “sGAG in μg/ml (release of sGAG/14 days)” value in data set [1] (10^−7 M, absence of IL-1β) was 189 µg/mL; in data set [1] (10^−7 M, presence of 100 pg/ml IL-1β), 221 µg/mL; in data set [1] (10^−8 M, absence of IL-1β) it was 107 µg/mL; in data set [1] (10^−8 M, presence of 100 pg/ml IL-1β), 189 µg/mL; in data set [1] (10^−9 M, absence of IL-1β) it was 64 µg/mL; in data set [1] (10^−9 M, presence of 100 pg/ml IL-1β) it was 204 µg/mL. Moreover, the “Cumulative μg/ml sGAG/14 days” value stood at 44 µg/mL in data set [1] (10^−8 M, absence of IL-1β, day 7); 107 µg/mL in data set [1] (10^−8 M, absence of IL-1β, day 14); 206 µg/mL in data set [1] (10^−8 M, absence of IL-1β, day 21); 253 µg/mL in data set [1] (10^−8 M, absence of IL-1β, day 28); 292 µg/mL in data set [1] (10^−8 M, absence of IL-1β, day 35); 68 µg/mL in data set [1] (10^−8 M, presence of 100 pg/ml IL-1β, day 7). The “Cumulative μg/ml sGAG/14 days” value in data set [1] (10^−8 M, presence of 100 pg/ml IL-1β, day 14) is 189 µg/mL; in data set [1] (10^−8 M, presence of 100 pg/ml IL-1β, day 21), 330 µg/mL; in data set [1] (10^−8 M, presence of 100 pg/ml IL-1β, day 28), 407 µg/mL; in data set [1] (10^−8 M, presence of 100 pg/ml IL-1β, day 35) it was 441 µg/mL. Also, the “time after discontinuation of treatment until inflammation decreases to 0” value in the data set on human skin [2] (0.1% to 1.0%, depending on the concentration (days 18 to 22)) lay in the range of 4 to 8 days. The “signs or symptoms of skin inflammation” value in the data set with human skin [2] (0.1%, 0.3% and 1.0% epicutaneous twice daily, around the tenth and eleventh day) was “slight erythema, desquamation and pruritus”; in the data set on human skin [2] (0.1%, 0.3% and 1.0% epicutaneous twice daily, first 9 days after start of treatment, one volunteer), “no signs or symptoms of skin inflammation”; in the data set with human skin [2] (0.1 and 0.3% epicutaneous twice daily, days 12, 13 and 14), “moderate inflammation”; in the data set with human skin [2] (1.0% epicutaneous twice daily, days 12, 13 and 14) it was “marked inflammation”. For the same compound, the “MMP-1 mRNA in relative units (fold increase of baseline value)” value with MMP-1 mRNA (10^−7 M, after 24 hours) was found to be 2.60 relative units; with MMP-1 mRNA (10^−8 M, 0 hours) it was 1 relative units; with MMP-1 mRNA (10^−8 M, 2 hours), 0.98 relative units; with MMP-1 mRNA (10^−8 M, 6 hours), 1.31 relative units; in the data set on MMP-1 mRNA (10^−8 M, 12 hours), 3.39 relative units; in the data set with MMP-1 mRNA (10^−8 M, 24 hours), 3.79 relative units. Besides, the “MMP-1 mRNA in relative units (fold increase of baseline value)” value in the data set with MMP-1 mRNA (10^−8 M, 48 hours) is on record as 1.47 relative units; with MMP-1 mRNA (10^−8 M, after 24 hours) it was 3.39 relative units; in the data set on MMP-1 mRNA (10^−9 M, after 24 hours) it was 1.54 relative units.

On to `CCCCOc1c(\C(C)=C/C=C/C(C)=C/C(=O)O)cc(C(C)(C)C)cc1C(C)(C)C` [compound A, (2E,4E,6Z)-7-[2-butoxy-3,5-bis(1,1-dimethylethyl)-phenyl]-3-methyl-2,4,6-octatrienoic acid], for which, in the data set on human skin [2] (1% epicutaneous twice daily day 1-14, observation to day 28), the “skin inflammation, objective or subjective symptoms” value was “no skin inflammation”. In addition, in the data set on human skin [3], the “reduction of the inflammatory reaction compared to vehicle control (skin thickness, erythema, area of inflamed skin)” value is given as “very marked”. Also, the “reduction of all parameters in comparison to the values of 9-cis RA” value with human skin [4] is on record as not below 50%. Besides, the “MPO activity compared to the vehicle control, normal skin” value with normal skin of mice (compound A 0.05%, epicutaneous, 4 days) is listed as “no significant change”. In the data set on normal skin of mice (compound A 2.5%, epicutaneous, 4 days), the “MPO activity in % of that of the vehicle control, normal skin” value is recorded as 57%. The “clinical signs or symptoms of a skin inflammation on normal skin” value in the data set on normal skin of mice (epicutaneous 0.05% and 2.5% in acetone/ethanol, 4 consecutive days) is given as “does not induce clinical signs or symptoms of a skin inflammation”.

The record behind these values is patent US20080242729A1, “Rxr Antagonists in the Treatment of Inflammatory Diseases” (priority 2004, published 2008).
